Source: US11028078B2 (The Johns Hopkins University, priority 2011, dated 2021)
Read-outs that look alike come from different tables or passages of the source.

Tests used:
CYP3A4 [1] = biological target: T1, CYP3A4 (Homo sapiens, UniProt P08684); assay: CYP3A4 enzyme assay (Vivid CYP3A4 Green Screening Kit); format: in vitro ADME; conditions: for CYP3A4 Inhibition (compared to intracozanole at 1 μm): % enzyme inhibition at 1 μM drug / % enzyme inhibition at 1 μM itraconazole
T1 construct: purchased ThermoFisher P2857; host or cells: baculosomes
Protocol: And CYP3A4 inhibition was initially determined using a cell-free fluorescence-based assay at a final concentration of 1 μM (Table 7).
CYP3A4 enzyme assay. CYP3A4 enzyme activity was tested using Vivid™ CYP3A4 Green Screening Kit (ThermoFisher, #P2857) using the manufacturer's protocol. Briefly, CYP3A4 baculosomes and drugs were incubated 10 min at 37° C. Then Vivid® Substrates were added and the fluorescence (ex/em:485/520) were read every 1 min for 60 minute.

HUVEC = HUVEC proliferation assay ([3H]thymidine incorporation); format: cell-based, human; conditions: HUVEC; for Proliferation (IC50/IC50 Itra): Table 7, relative to itraconazole; for IC50: Homo sapiens
In short: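 Pooled HUVEC at passage eight or lower, grown in EGM-2 medium; proliferation measured by [3H]thymidine incorporation as in an earlier published protocol.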

CYP3A4 [2] = biological target: T1, CYP3A4; assay: CYP3A4 enzyme assay (Vivid CYP3A4 Green Screening Kit); format: in vitro ADME; conditions: FIG. 12, higher concentrations
[3] = 3H thymidine incorporation, in μM, read-out: Proliferation IC50
[4] = read-out: IC50 for inhibition of HUVEC proliferation

T1 sequence (P08684 whole entry): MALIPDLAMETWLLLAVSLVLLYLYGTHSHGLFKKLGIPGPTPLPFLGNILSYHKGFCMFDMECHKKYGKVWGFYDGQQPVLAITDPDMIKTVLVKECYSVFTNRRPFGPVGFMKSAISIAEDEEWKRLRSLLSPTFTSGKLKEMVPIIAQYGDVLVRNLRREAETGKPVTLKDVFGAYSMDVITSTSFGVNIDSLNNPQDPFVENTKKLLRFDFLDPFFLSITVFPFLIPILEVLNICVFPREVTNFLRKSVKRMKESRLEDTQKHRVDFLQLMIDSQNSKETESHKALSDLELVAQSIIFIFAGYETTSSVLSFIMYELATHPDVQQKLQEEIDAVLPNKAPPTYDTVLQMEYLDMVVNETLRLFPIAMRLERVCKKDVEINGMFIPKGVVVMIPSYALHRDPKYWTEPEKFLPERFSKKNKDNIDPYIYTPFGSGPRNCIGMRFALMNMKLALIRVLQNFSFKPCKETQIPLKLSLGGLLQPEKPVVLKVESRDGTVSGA

Compound	CYP3A4 Inhibition (compared to intracozanole at 1 μm) (CYP3A4 [1])	Proliferation (IC50/IC50 Itra) (HUVEC)	IC50 (HUVEC; [3])	IC50 (HUVEC; [4])	CYP3A4 inhibition in the initial screening (CYP3A4 [1]; 1 μM)	CYP3A4 inhibition in dose response assays (CYP3A4 [2])
CCC(C)n1ncn(-c2ccc(N3CCN(c4ccc(OC[C@@H]5CO[C@@](Cn6ccnc6C(C)C)(c6ccc(Cl)cc6Cl)O5)cc4)CC3)cc2)c1=O (stereo partly drawn) [Compound 245, 1-sec-butyl-4-(4-(4-(4-(((2S,4R)-2-(2,4-dichlorophenyl)-2-((2-isopropyl-1H-imidazol-1-yl)methyl)-1,3-dioxolan-4-yl)methoxy)phenyl)piperazin-1-yl)phenyl)-1H-1,2,4-triazol-5(4H)-one]	0.07	0.4	0.068 µM			
CCC(C)n1ncn(-c2ccc(N3CCN(c4ccc(OC[C@@H]5CO[C@@](Cn6ccnc6-c6ccccc6)(c6ccc(Cl)cc6Cl)O5)cc4)CC3)cc2)c1=O (stereo partly drawn) [Compound 246, 1-sec-butyl-4-(4-(4-(4-(((2S,4R)-2-(2,4-dichlorophenyl)-2-((2-phenyl-1H-imidazol-1-yl)methyl)-1,3-dioxolan-4-yl)methoxy)phenyl)piperazin-1-yl)phenyl)-1H-1,2,4-triazol-5(4H)-one]	0.27		0.136 µM			
CCC(C)n1ncn(-c2ccc(N3CCN(c4ccc(OC[C@@H]5CO[C@@](Cn6ncnn6)(c6ccc(Cl)cc6Cl)O5)cc4)CC3)cc2)c1=O (stereo partly drawn) [Compound 249, 4-(4-(4-(4-(((2S,4R)-2-((2H-tetrazol-2-yl)methyl)-2-(2,4-dichlorophenyl)-1,3-dioxolan-4-yl)methoxy)phenyl)piperazin-1-yl)phenyl)-1-sec-butyl-1H-1,2,4-triazol-5(4H)-one]	0.2	0.6	0.102 µM			
CCC(C)n1ncn(-c2ccc(N3CCN(c4ccc(OC[C@@H]5CO[C@@](Cn6cnc(C)n6)(c6ccc(Cl)cc6Cl)O5)cc4)CC3)cc2)c1=O (stereo partly drawn) [Compound 250, 1-sec-butyl-4-(4-(4-(4-(((2S,4R)-2-(2,4-dichlorophenyl)-2-((3-methyl-1H-1,2,4-triazol-1-yl)methyl)-1,3-dioxolan-4-yl)methoxy)phenyl)piperazin-1-yl)phenyl)-1H-1,2,4-triazol-5(4H)-one]	0.36		0.272 µM	0.27 µM		
CCC(C)n1ncn(-c2ccc(N3CCN(c4ccc(OC[C@@H]5CO[C@@](Cn6cnc(C(F)(F)F)n6)(c6ccc(Cl)cc6Cl)O5)cc4)CC3)cc2)c1=O (stereo partly drawn) [Compound 251, 1-sec-butyl-4-(4-(4-(4-(((2S,4R)-2-(2,4-dichlorophenyl)-2-((3-(trifluoromethyl)-1H-1,2,4-triazol-1-yl)methyl)-1,3-dioxolan-4-yl)methoxy)phenyl)piperazin-1-yl)phenyl)-1H-1,2,4-triazol-5(4H)-one]	No inhibition		0.272 µM	0.27 µM	eliminated CYP3A4 inhibition	
CCC(C)n1ncn(-c2ccc(N3CCN(c4ccc(OC[C@@H]5CO[C@@](Cn6nnnc6C)(c6ccc(Cl)cc6Cl)O5)cc4)CC3)cc2)c1=O (stereo partly drawn) [Compound 252, 1-sec-butyl-4-(4-(4-(4-(((2S,4R)-2-(2,4-dichlorophenyl)-2-((5-methyl-1H-tetrazol-1-yl)methyl)-1,3-dioxolan-4-yl)methoxy)phenyl)piperazin-1-yl)phenyl)-1H-1,2,4-triazol-5(4H)-one]	0.08		0.101 µM			
CCC(C)n1ncn(-c2ccc(N3CCN(c4ccc(OC[C@@H]5CO[C@@](Cn6nnnc6-c6ccccc6)(c6ccc(Cl)cc6Cl)O5)cc4)CC3)cc2)c1=O (stereo partly drawn) [Compound 253, 1-sec-butyl-4-(4-(4-(4-(((2S,4R)-2-(2,4-dichlorophenyl)-2-((5-phenyl-1H-tetrazol-1-yl)methyl)-1,3-dioxolan-4-yl)methoxy)phenyl)piperazin-1-yl)phenyl)-1H-1,2,4-triazol-5(4H)-one]	0.22		0.119 µM			
CCC(C)n1ncn(-c2ccc(N3CCN(c4ccc(OC[C@@H]5CO[C@@](CBr)(c6ccc(Cl)cc6Cl)O5)cc4)CC3)cc2)c1=O (stereo partly drawn) [Compound 257, 4-(4-(4-(4-(((2S,4R)-2-(bromomethyl)-2-(2,4-dichlorophenyl)-1,3-dioxolan-4-yl)methoxy)phenyl)piperazin-1-yl)phenyl)-1-sec-butyl-1H-1,2,4-triazol-5(4H)-one]	0.03		0.512 µM			
CCC(C)n1ncn(-c2ccc(N3CCN(c4ccc(OC[C@@H]5CO[C@@](CC)(c6ccc(Cl)cc6Cl)O5)cc4)CC3)cc2)c1=O (stereo partly drawn) [Compound 259, 1-sec-butyl-4-(4-(4-(4-(((2R,4R)-2-(2,4-dichlorophenyl)-2-ethyl-1,3-dioxolan-4-yl)methoxy)phenyl)piperazin-1-yl)phenyl)-1H-1,2,4-triazol-5(4H)-one]	No inhibition		0.314 µM			totally lost CYP3A4 inhibition
CCC(C)n1ncn(-c2ccc(N3CCN(c4ccc(OC[C@@H]5CO[C@@](CC6CCCC6)(c6ccc(Cl)cc6Cl)O5)cc4)CC3)cc2)c1=O (stereo partly drawn) [Compound 261, 1-sec-butyl-4-(4-(4-(4-(((2R,4R)-2-(cyclopentylmethyl)-2-(2,4-dichlorophenyl)-1,3-dioxolan-4-yl)methoxy)phenyl)piperazin-1-yl)phenyl)-1H-1,2,4-triazol-5(4H)-one]	No inhibition		0.512 µM			
CCC(C)n1ncn(-c2ccc(N3CCN(c4ccc(OC[C@@H]5COC(c6ccc(Cl)cc6Cl)O5)cc4)CC3)cc2)c1=O (stereo partly drawn) [Compound 262, 1-sec-butyl-4-(4-(4-(4-(((4R)-2-(2,4-dichlorophenyl)-1,3-dioxolan-4-yl)methoxy)phenyl)piperazin-1-yl)phenyl)-1H-1,2,4-triazol-5(4H)-one]	No inhibition		0.328 µM			
CCC(C)n1ncn(-c2ccc(N3CCN(c4ccc(OC[C@@H]5CO[C@@](CN6CCOCC6)(c6ccc(Cl)cc6Cl)O5)cc4)CC3)cc2)c1=O (stereo partly drawn) [Compound 263, 1-(sec-butyl)-4-(4-(4-(4-(((2S,4R)-2-(2,4-dichlorophenyl)-2-(morpholinomethyl)-1,3-dioxolan-4-yl)methoxy)phenyl)piperazin-1-yl)phenyl)-1H-1,2,4-triazol-5(4H)-one]	0.20		1.18 µM			
CCC(C)n1ncn(-c2ccc(N3CCN(c4ccc(OC[C@@H]5CO[C@@](CN(C)C)(c6ccc(Cl)cc6Cl)O5)cc4)CC3)cc2)c1=O (stereo partly drawn) [Compound 264, 1-(sec-butyl)-4-(4-(4-(4-(((2S,4R)-2-(2,4-dichlorophenyl)-2-((dimethylamino)methyl)-1,3-dioxolan-4-yl)methoxy)phenyl)piperazin-1-yl)phenyl)-1H-1,2,4-triazol-5(4H)-one]	No inhibition		1.4 µM			
CCC(C)n1ncn(-c2ccc(N3CCN(c4ccc(OC[C@@H]5CO[C@@](CN6CCN(C)CC6)(c6ccc(Cl)cc6Cl)O5)cc4)CC3)cc2)c1=O (stereo partly drawn) [Compound 265, 1-(sec-butyl)-4-(4-(4-(4-(((2S,4R)-2-(2,4-dichlorophenyl)-2-((4-methylpiperazin-1-yl)methyl)-1,3-dioxolan-4-yl)methoxy)phenyl)piperazin-1-yl)phenyl)-1H-1,2,4-triazol-5(4H)-one]	0.21		0.396 µM			
CCC(C)n1ncn(-c2ccc(N3CCN(c4ccc(OC[C@@H]5CO[C@@](CN6CCNCC6)(c6ccc(Cl)cc6Cl)O5)cc4)CC3)cc2)c1=O (stereo partly drawn) [Compound 266, 1-(sec-butyl)-4-(4-(4-(4-(((2S,4R)-2-(2,4-dichlorophenyl)-2-(piperazin-1-ylmethyl)-1,3-dioxolan-4-yl)methoxy)phenyl)piperazin-1-yl)phenyl)-1H-1,2,4-triazol-5(4H)-one]	1.09		0.608 µM			
